Assay results from article PMC7265341, “Quantifying CDK inhibitor selectivity in live cells” (Nature Communications, 2020).
Where two headings read alike, the source gives them in different places.

Experiments:
[1] = target: CDK1/Cyclin E1 (Homo sapiens, UniProt P06493); experiment: NanoBRET live-cell target engagement, CDK1-NanoLuc/Cyclin E1 in HEK-293; format: binding; conditions: CDK1/E1, 10µM
[2] = target: CDK2/Cyclin E1 (Homo sapiens, UniProt P24941); experiment: NanoBRET live-cell target engagement, CDK2-NanoLuc/Cyclin E1 in HEK-293; format: binding; conditions: CDK2/E1, 10µM
[3] = target: CDK3/Cyclin E1 (Homo sapiens, UniProt Q00526); experiment: NanoBRET live-cell target engagement, CDK3-NanoLuc/Cyclin E1 in HEK-293; format: binding; conditions: CDK3/E1, 10µM
[4] = target: CDK4/Cyclin D1 (Homo sapiens, UniProt P11802); experiment: NanoBRET live-cell target engagement, NanoLuc-CDK4/Cyclin D1 in HEK-293; format: binding; conditions: CDK4/D1, 10µM
[5] = target: CDK5/CDK5R1 (Homo sapiens, UniProt Q00535); experiment: NanoBRET live-cell target engagement, CDK5-NanoLuc/CDK5R1 in HEK-293; format: binding; conditions: CDK5/CDK5R1, 10µM
[6] = target: CDK6/Cyclin D1 (Homo sapiens, UniProt Q00534); experiment: NanoBRET live-cell target engagement, NanoLuc-CDK6/Cyclin D1 in HEK-293; format: binding; conditions: CDK6/D1, 10µM
[7] = target: CDK7 (Homo sapiens, UniProt P50613); experiment: NanoBRET live-cell target engagement, NanoLuc-CDK7 in HEK-293; format: binding; conditions: CDK7, 10µM
[8] = target: CDK8/Cyclin C (Homo sapiens, UniProt P49336); experiment: NanoBRET live-cell target engagement, NanoLuc-CDK8/Cyclin C in HEK-293; format: binding; conditions: CDK8/C, 10µM
[9] = target: CDK9/Cyclin K (Homo sapiens, UniProt P50750); experiment: NanoBRET live-cell target engagement, NanoLuc-CDK9/Cyclin K in HEK-293; format: binding; conditions: CDK9/K, 10µM
[10] = target: CDK11B/Cyclin L2 (Homo sapiens, UniProt P21127); experiment: NanoBRET live-cell target engagement, CDK11B-NanoLuc/Cyclin L2 in HEK-293; format: binding; conditions: CDK11b/L2, 10µM
[11] = target: CDK12/Cyclin K (Homo sapiens, UniProt Q9NYV4); experiment: NanoBRET live-cell target engagement, CDK12-NanoLuc/Cyclin K in HEK-293; format: binding; conditions: 10µM
[12] = target: CDK13/Cyclin K (Homo sapiens, UniProt Q14004); experiment: NanoBRET live-cell target engagement, CDK13-NanoLuc/Cyclin K in HEK-293; format: binding; conditions: CDK13/K, 10µM
[13] = target: CDK14/Cyclin Y (Homo sapiens, UniProt O94921); experiment: NanoBRET live-cell target engagement, CDK14-NanoLuc/Cyclin Y in HEK-293; format: binding; conditions: CDK14/Y, 10µM
[14] = target: CDK15/Cyclin Y (Homo sapiens, UniProt Q96Q40); experiment: NanoBRET live-cell target engagement, NanoLuc-CDK15/Cyclin Y in HEK-293; format: binding; conditions: CDK15/Y, 10µM
[15] = target: CDK16/Cyclin Y (Homo sapiens, UniProt Q00536); experiment: NanoBRET live-cell target engagement, CDK16-NanoLuc/Cyclin Y in HEK-293; format: binding; conditions: CDK16/Y, 10µM
[16] = target: CDK17/Cyclin Y (Homo sapiens, UniProt Q00537); experiment: NanoBRET live-cell target engagement, CDK17-NanoLuc/Cyclin Y in HEK-293; format: binding; conditions: CDK17/Y, 10µM
[17] = target: CDK18/Cyclin Y (Homo sapiens, UniProt Q07002); experiment: NanoBRET live-cell target engagement, CDK18-NanoLuc/Cyclin Y in HEK-293; format: binding; conditions: CDK18/Y, 10µM
[18] = target: CDK20/Cyclin H (Homo sapiens, UniProt Q8IZL9); experiment: NanoBRET live-cell target engagement, NanoLuc-CDK20/Cyclin H in HEK-293; format: binding; conditions: 10µM
[19] = target: CDK19/Cyclin C (Homo sapiens, UniProt Q9BWU1); experiment: NanoBRET live-cell target engagement, NanoLuc-CDK19/Cyclin C in HEK-293; conditions: 10µM
[20] = target: CDK10/Cyclin L2 (Homo sapiens, UniProt Q15131); experiment: NanoBRET live-cell target engagement, CDK10-NanoLuc/Cyclin L2 in HEK-293; conditions: 10µM
[21] = average of replicates, read-out: Inhibition at 10µM (%) Average
[22] = read-out: Inhibition at 10µM (%) Replicate 1
[23] = read-out: Inhibition at 10µM (%) Replicate 2

Sequence of CDK1/Cyclin E1 (P06493 whole entry): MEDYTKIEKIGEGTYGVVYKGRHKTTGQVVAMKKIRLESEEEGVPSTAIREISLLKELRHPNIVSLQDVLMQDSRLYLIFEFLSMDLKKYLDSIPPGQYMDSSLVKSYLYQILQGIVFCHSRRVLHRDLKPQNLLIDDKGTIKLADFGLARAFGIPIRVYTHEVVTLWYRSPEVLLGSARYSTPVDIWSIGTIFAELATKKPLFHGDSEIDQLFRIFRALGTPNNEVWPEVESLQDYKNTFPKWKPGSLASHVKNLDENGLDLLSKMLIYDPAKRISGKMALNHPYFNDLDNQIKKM
Sequence of CDK1/Cyclin E1 (P24864 whole entry partner): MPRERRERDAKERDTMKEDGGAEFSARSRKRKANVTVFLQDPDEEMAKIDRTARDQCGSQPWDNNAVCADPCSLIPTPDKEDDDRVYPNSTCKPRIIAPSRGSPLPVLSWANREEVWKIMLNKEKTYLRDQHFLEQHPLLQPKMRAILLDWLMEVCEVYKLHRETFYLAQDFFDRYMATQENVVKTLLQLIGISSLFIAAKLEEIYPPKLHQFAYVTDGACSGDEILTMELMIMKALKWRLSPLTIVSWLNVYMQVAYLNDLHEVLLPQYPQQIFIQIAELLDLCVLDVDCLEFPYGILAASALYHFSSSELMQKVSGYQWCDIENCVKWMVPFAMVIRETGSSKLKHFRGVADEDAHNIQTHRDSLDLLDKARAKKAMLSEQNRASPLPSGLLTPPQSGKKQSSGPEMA
Sequence of CDK19/Cyclin C (Q9BWU1 whole entry): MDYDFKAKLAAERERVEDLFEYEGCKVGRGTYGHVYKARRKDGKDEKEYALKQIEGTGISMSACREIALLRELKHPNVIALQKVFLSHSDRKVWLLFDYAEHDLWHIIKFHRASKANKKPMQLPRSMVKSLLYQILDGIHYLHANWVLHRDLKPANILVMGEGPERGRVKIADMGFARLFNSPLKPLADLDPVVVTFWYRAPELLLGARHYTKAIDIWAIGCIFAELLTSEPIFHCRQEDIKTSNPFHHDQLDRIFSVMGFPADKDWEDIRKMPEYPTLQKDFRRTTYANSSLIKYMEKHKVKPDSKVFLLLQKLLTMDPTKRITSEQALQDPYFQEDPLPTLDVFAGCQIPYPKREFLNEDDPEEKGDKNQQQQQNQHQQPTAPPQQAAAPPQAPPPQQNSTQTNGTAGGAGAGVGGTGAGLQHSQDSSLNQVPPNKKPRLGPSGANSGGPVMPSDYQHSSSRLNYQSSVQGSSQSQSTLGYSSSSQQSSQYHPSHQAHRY
Sequence of CDK19/Cyclin C (P24863 whole entry partner): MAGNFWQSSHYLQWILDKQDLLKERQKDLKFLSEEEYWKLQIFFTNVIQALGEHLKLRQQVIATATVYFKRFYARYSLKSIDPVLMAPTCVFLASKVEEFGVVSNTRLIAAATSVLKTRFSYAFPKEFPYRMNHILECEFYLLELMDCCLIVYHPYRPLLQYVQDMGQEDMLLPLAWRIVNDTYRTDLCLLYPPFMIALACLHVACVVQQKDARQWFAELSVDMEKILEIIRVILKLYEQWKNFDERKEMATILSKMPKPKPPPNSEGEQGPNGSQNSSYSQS
Sequence of CDK15/Cyclin Y (Q96Q40 whole entry): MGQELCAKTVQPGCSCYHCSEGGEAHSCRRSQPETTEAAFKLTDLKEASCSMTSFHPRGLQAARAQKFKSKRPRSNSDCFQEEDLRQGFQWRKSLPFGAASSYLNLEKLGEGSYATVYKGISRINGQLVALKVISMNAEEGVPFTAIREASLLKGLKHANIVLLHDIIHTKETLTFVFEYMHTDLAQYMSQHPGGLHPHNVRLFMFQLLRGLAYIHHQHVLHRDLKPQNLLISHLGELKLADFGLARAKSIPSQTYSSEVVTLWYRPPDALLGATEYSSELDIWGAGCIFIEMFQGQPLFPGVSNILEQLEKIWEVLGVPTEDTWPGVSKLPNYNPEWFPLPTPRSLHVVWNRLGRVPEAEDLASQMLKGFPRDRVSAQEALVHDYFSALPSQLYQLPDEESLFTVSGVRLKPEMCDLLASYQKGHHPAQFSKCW
Sequence of CDK15/Cyclin Y (Q8ND76 whole entry partner): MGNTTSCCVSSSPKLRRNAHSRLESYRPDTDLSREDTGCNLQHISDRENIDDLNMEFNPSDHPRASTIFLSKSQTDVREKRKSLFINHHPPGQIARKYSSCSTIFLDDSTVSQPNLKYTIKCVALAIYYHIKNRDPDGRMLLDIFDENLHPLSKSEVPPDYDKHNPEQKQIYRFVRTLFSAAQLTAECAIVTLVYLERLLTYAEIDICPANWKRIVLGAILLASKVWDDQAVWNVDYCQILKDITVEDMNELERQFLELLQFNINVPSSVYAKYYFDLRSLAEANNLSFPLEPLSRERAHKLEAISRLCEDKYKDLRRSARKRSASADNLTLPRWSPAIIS
Sequence of CDK18/Cyclin Y (Q07002 whole entry): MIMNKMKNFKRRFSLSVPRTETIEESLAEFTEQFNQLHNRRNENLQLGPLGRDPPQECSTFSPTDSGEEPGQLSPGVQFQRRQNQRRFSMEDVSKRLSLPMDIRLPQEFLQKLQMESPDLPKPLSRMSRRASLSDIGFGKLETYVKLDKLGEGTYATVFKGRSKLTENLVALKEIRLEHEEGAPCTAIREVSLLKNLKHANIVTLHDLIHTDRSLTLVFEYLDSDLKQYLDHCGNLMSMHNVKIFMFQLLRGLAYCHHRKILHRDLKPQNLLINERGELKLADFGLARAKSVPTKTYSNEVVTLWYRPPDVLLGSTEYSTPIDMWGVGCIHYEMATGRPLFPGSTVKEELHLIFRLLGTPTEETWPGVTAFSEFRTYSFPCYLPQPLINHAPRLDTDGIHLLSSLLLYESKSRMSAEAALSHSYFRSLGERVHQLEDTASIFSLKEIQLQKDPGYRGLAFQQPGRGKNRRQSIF
Sequence of CDK18/Cyclin Y (Q8ND76 whole entry partner): as the sequence (Q8ND76 whole entry partner) above
Sequence of CDK3/Cyclin E1 (Q00526 whole entry): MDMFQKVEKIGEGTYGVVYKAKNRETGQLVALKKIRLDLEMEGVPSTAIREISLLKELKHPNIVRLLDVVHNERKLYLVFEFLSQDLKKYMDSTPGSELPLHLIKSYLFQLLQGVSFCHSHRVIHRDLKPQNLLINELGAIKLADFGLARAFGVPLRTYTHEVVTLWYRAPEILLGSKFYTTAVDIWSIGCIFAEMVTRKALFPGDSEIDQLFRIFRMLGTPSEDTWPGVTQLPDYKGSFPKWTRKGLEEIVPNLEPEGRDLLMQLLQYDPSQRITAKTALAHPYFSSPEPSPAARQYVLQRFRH
Sequence of CDK3/Cyclin E1 (P24864 whole entry partner): as the sequence (P24864 whole entry partner) above
Sequence of CDK14/Cyclin Y (O94921 whole entry): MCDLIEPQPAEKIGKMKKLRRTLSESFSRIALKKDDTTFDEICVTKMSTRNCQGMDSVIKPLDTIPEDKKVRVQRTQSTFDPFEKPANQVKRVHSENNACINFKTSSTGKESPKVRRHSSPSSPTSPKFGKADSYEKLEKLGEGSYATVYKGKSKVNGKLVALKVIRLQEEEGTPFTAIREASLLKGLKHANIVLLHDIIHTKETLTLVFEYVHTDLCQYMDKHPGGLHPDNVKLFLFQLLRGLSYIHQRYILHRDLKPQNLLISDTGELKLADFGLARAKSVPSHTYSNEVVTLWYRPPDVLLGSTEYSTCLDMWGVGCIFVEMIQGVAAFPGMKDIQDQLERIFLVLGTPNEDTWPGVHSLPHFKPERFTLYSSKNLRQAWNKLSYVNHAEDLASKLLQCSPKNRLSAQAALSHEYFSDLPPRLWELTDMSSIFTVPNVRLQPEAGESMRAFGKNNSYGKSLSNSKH
Sequence of CDK14/Cyclin Y (Q8ND76 whole entry partner): as the sequence (Q8ND76 whole entry partner) above
Sequence of CDK9/Cyclin K (P50750 whole entry): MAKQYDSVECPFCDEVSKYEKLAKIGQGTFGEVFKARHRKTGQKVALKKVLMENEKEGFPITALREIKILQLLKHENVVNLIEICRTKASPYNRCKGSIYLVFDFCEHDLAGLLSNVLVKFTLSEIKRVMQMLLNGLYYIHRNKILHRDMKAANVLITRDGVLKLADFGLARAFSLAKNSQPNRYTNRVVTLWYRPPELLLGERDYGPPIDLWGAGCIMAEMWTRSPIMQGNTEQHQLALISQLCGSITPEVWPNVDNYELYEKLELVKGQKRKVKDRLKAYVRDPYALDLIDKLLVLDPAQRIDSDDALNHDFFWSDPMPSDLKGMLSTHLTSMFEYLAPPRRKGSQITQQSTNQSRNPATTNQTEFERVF
Sequence of CDK9/Cyclin K (O75909 whole entry partner): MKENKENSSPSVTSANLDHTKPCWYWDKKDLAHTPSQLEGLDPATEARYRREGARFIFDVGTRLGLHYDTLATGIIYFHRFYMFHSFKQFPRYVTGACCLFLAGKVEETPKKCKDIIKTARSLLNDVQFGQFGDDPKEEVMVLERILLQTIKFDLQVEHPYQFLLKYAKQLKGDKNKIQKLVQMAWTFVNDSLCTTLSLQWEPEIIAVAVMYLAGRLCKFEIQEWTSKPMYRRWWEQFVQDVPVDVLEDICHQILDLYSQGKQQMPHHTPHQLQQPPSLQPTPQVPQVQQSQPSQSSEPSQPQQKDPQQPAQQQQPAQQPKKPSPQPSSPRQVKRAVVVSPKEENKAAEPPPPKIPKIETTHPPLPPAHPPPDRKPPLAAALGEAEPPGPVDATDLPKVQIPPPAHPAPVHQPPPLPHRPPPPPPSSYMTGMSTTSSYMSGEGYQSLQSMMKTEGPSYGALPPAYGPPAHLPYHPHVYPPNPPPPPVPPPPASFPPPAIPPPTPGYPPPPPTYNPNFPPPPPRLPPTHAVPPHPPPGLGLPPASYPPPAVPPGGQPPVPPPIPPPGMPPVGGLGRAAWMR

COc1cc(F)ccc1-c1ncnc(Nc2cccc(C[S@](C)(=N)=O)c2)n1 [Atuveciclib]
inhibition at 10 µM [1, 21]: 16.6% | inhibition at 10 µM [1, 22]: 19.4% | inhibition at 10 µM [1, 23]: 13.8% | inhibition at 10 µM [2, 21]: 41.7% | inhibition at 10 µM [2, 22]: 42.9% | inhibition at 10 µM [2, 23]: 40.5% | inhibition at 10 µM [3, 21]: 48.4% | inhibition at 10 µM [3, 22]: 47.3% | inhibition at 10 µM [3, 23]: 49.6% | inhibition at 10 µM [4, 21]: 31.5% | inhibition at 10 µM [4, 22]: 53.7% | inhibition at 10 µM [4, 23]: 9.3% | inhibition at 10 µM [5, 21]: 26.1% | inhibition at 10 µM [5, 22]: 23.9% | inhibition at 10 µM [5, 23]: 28.3% | inhibition at 10 µM [6, 21]: 64.1% | inhibition at 10 µM [6, 22]: 61.7% | inhibition at 10 µM [6, 23]: 66.4% | inhibition at 10 µM [7, 21]: 16.8% | inhibition at 10 µM [7, 22]: 22% | inhibition at 10 µM [7, 23]: 11.6% | inhibition at 10 µM [8, 21]: 3% | inhibition at 10 µM [8, 22]: -1% | inhibition at 10 µM [8, 23]: 7% | inhibition at 10 µM [9, 21]: 97.9% | inhibition at 10 µM [9, 22]: 98.1% | inhibition at 10 µM [9, 23]: 97.6% | inhibition at 10 µM [10, 21]: 7.4% | inhibition at 10 µM [10, 22]: 11.9% | inhibition at 10 µM [10, 23]: 2.9% | inhibition at 10 µM ([11]; read-out: Inhibition at 10µM (%) Average, CDK12/K, average of replicates): 8.2% | inhibition at 10 µM ([11]; read-out: Inhibition at 10µM (%) Replicate 1, CDK12/K): 3% | inhibition at 10 µM ([11]; read-out: Inhibition at 10µM (%) Replicate 2, CDK12/K): 13.3% | inhibition at 10 µM [12, 21]: 4.8% | inhibition at 10 µM [12, 22]: 8% | inhibition at 10 µM [12, 23]: 1.6% | inhibition at 10 µM [13, 21]: 3% | inhibition at 10 µM [13, 22]: 8.4% | inhibition at 10 µM [13, 23]: -2.5% | inhibition at 10 µM [14, 21]: 4.5% | inhibition at 10 µM [14, 22]: 2% | inhibition at 10 µM [14, 23]: 7.1% | inhibition at 10 µM [15, 22]: 39.3% | inhibition at 10 µM [15, 23]: 37.9% | inhibition at 10 µM [16, 21]: 31% | inhibition at 10 µM [16, 22]: 30.9% | inhibition at 10 µM [16, 23]: 31.1% | inhibition at 10 µM [17, 21]: 19.9% | inhibition at 10 µM [17, 22]: 17.3% | inhibition at 10 µM [17, 23]: 22.4% | inhibition at 10 µM ([18]; read-out: Inhibition at 10µM (%) Replicate 1, CDK20/H): 1.3% | inhibition at 10 µM ([18]; read-out: Inhibition at 10µM (%) Replicate 2, CDK20/H): 1.3% | inhibition at 10 µM ([19]; read-out: Inhibition at 10µM (%) Average, CDK19/C, average of replicates): 11.1% | inhibition at 10 µM ([19]; read-out: Inhibition at 10µM (%) Replicate 1, CDK19/C): 12.3% | inhibition at 10 µM ([19]; read-out: Inhibition at 10µM (%) Replicate 2, CDK19/C): 9.9% | inhibition at 10 µM ([20]; read-out: Inhibition at 10µM (%) Average, CDK10/L2, average of replicates): 6.3% | inhibition at 10 µM ([20]; read-out: Inhibition at 10µM (%) Replicate 1, CDK10/L2): 9.2% | inhibition at 10 µM ([20]; read-out: Inhibition at 10µM (%) Replicate 2, CDK10/L2): 3.4%
